Data taken from patent US20120295291A1, “Method for Determining the Risk of Clopidogrel Resistance” (SIEMENS HEALTHCARE DIAGNOSTICS PRODUCTS GMBH, priority 2011, published 2012).
Where two headings read alike, the source gives them in different places.

Test system: thrombocytes (thrombocyte activity; ADP receptor P2Y12)
Conditions: for patients studied clopidogrel-resistant (closure time below cut-off after intake of clopidogrel): INNOVANCE PFA P2Y cartridges, after 300 or 600 mg clopidogrel loading dose, cut-off 106 s

SMILES: COC(=O)[C@H](c1ccccc1Cl)N1CCc2sccc2C1 [clopidogrel, methyl (S)-α-(2-chlorophenyl)-6,7-dihydrothieno[3,2-c]pyridine-5(4H)-acetate]
- relative risk of patient not responding to clopidogrel (Col/EPI closure time prior to intake 140 s (3.2% citrated blood), response by INNOVANCE PFA P2Y after intake in 3.8% citrated whole blood, p<0.0001): 2.64
- relative risk of patient not responding to clopidogrel (Col/EPI closure time prior to intake ≦140 s vs >140 s, 3.2% citrated whole blood, p<0.004): 1.78
- patients studied clopidogrel-resistant (closure time below cut-off after intake of clopidogrel) (3.2% citrated whole blood): 45.8%
- patients studied clopidogrel-resistant (closure time below cut-off after intake of clopidogrel) (3.8% citrated whole blood): 37.5%
- relative risk of patient not responding to clopidogrel (INNOVANCE PFA P2Y closure time prior to intake ≦59 s vs >59 s, 3.8% citrated whole blood, p<0.002): 1.98
- relative risk of patient not responding to clopidogrel (INNOVANCE PFA P2Y closure time prior to intake ≦60 s vs >60 s, 3.2% citrated whole blood, p<0.02): 1.61
- relative risk of patient not responding to clopidogrel (patients undergoing ASA therapy, Col/ADP closure time prior to intake ≦91 s vs >91 s, 3.2% citrated whole blood, p=0.06): 1.47
